≈ marks a conversion by molar mass, not a printed value. Residues, ends and D or L forms follow the SMILES beside them.
Key:
Assay type in all cases: cell-based
[1] = system: Bacillus subtilis (CMCC(B)63501); experiment: microbe, parasite or virus in culture
Protocol: (§1) The experimentally determined strains are as follows: Listeria monocytogenes (ATCC 19115), Staphylococcus aureus (CMCC(B)26003), Bacillus subtilis (CMCC(B)63501), Escherichia coli (CMCC(B) 44102), Pseudomonas aeruginosa (CMCC(B)10104), Enterococcus faecalis (clinical strains) from China Pharmaceutical University Microbiology Laboratory. Minimal inhibitory concentration(MIC) of peptides were determined using broth microdilution method. Two-fold serial dilutions of eight peptides were prepared from 1024.0 to 1.0 μg/ml in 96-well microtiter plate (100.0 μl of each well). Then peptide dilutions were mixed with LB broth and bacterial culture (100.0 μl) containing 2.0 × 10^5 CFU/ml. Final peptide concentrations ranged from 0.5 to 512.0 μg/ml. The final bacterial concentration was approximately 1.0 × 10^5 CFU/ml. Positive controls were incubated with Cefuroxime instead of peptide, at concentrations from 0.5 to 512.0 μg/ml. Negative and blank controls were incubated, respectively, with sterile deionized water or only LB broth. Microtiter plates were incubated at 37 °C for 24 h under normal atmospheric conditions. OD600 was measured using a microplate spectrophotometer (Multiskan GO, Thermo Scientific, USA). MIC was recorded as the endpoint where no difference of OD600 could be detected with respect to the blank LB broth. MIC assays were performed three times for all strains.

[2] = system: Escherichia coli (CMCC(B) 44102); experiment: microbe, parasite or virus in culture
Protocol: as §1

[3] = system: Listeria monocytogenes (ATCC 19115); experiment: microbe, parasite or virus in culture
Protocol: as §1

[4] = system: Pseudomonas aeruginosa (CMCC(B)10104); experiment: microbe, parasite or virus in culture
Protocol: as §1

[5] = system: Staphylococcus aureus (CMCC(B)26003); experiment: microbe, parasite or virus in culture
Protocol: as §1

[6] = system: Enterococcus faecalis (clinical strains); experiment: MIC, broth microdilution; conditions: LB broth, ~1.0 × 10^5 CFU/ml, 0.5 to 512.0 μg/ml, 37 °C, 24 h, OD600, performed three times
Protocol: as §1

| Compound | MIC Listeria monocytogenes ([3]; ATCC 19115, 24 h) [µg/mL] | MIC Staphylococcus aureus ([5]; CMCC(B)26003, 24 h) [µg/mL] | MIC Bacillus subtilis ([1]; CMCC(B)63501, 24 h) [µg/mL] | other results |
| --- | --- | --- | --- | --- |
| CO/N=C(\C(=O)N[C@@H]1C(=O)N2C(C(=O)O)=C(COC(N)=O)CS[C@H]12)c1ccco1 [Cefuroxime, reference compound] | – | – | – | MIC ([1]; Bacillus subtilis, CMCC(B)63501, broth microdilution, LB broth, ~1.0 × 10^5 CFU/ml, 0.5 to 512.0 μg/ml, 37 °C, 24 h, OD600, performed three times): ≤ 0.5 µg/mL; MIC ([2]; Escherichia coli, CMCC(B) 44102, broth microdilution, LB broth, ~1.0 × 10^5 CFU/ml, 0.5 to 512.0 μg/ml, 37 °C, 24 h, OD600, performed three times): 8 µg/mL (≈ 18.9 µM); MIC ([3]; Listeria monocytogenes, ATCC19115, ATCC 19115, broth microdilution, LB broth, ~1.0 × 10^5 CFU/ml, 0.5 to 512.0 μg/ml, 37 °C, 24 h, OD600, performed three times): 4 µg/mL (≈ 9.43 µM); MIC ([4]; Pseudomonas aeruginosa, CMCC(B)10104, broth microdilution, LB broth, ~1.0 × 10^5 CFU/ml, 0.5 to 512.0 μg/ml, 37 °C, 24 h, OD600, performed three times): > 512 µg/mL; MIC ([5]; Staphylococcus aureus, CMCC(B)26003, broth microdilution, LB broth, ~1.0 × 10^5 CFU/ml, 0.5 to 512.0 μg/ml, 37 °C, 24 h, OD600, performed three times): 4 µg/mL (≈ 9.43 µM); MIC ([6]; Enterococcus faecalis): 16 µg/mL (≈ 37.7 µM) |
| CC[C@H](C)[C@H](NC(=O)[C@H](CCCNC(=N)N)NC(=O)[C@H](CCCNC(=N)N)NC(=O)[C@H](CC(C)C)NC(=O)[C@@H](N)Cc1ccccc1)C(=O)N[C@@H](CCCNC(=N)N)C(=O)N[C@H](C(N)=O)C(C)C [FLRRIRV-NH2] (H-FLRRIRV-NH2) | 128 (≈ 134 µM) | 128 (≈ 134 µM) | – | – |
| CC[C@H](C)[C@H](NC(=O)[C@H](CCCNC(=N)N)NC(=O)[C@H](CCCNC(=N)N)NC(=O)[C@H](CC(C)C)NC(=O)[C@@H](N)Cc1ccccc1)C(=O)N[C@@H](CCCNC(=N)N)C(=O)N[C@H](C(=O)N[C@H](C(=O)N1CCC[C@H]1C(=O)N[C@@H](Cc1c[nH]c2ccccc12)C(=O)N[C@H](C(=O)N[C@@H](CC(N)=O)C(=O)N1CCC[C@H]1C(=O)N1CCC[C@H]1C(=O)N[C@@H](Cc1ccccc1)C(=O)N[C@@H](CC(C)C)C(=O)N[C@@H](CCC(N)=O)C(=O)N[C@@H](CCC(N)=O)C(=O)N[C@H](C(N)=O)[C@@H](C)O)C(C)C)[C@@H](C)O)C(C)C [FLRRIRVTPWVNPPFLQQT-NH2] (H-FLRRIRVTPWVNPPFLQQT-NH2) | 128 (≈ 54.1 µM) | 256 (≈ 108 µM) | – | – |
| CC[C@H](C)[C@H](NC(=O)[C@H](CCCNC(=N)N)NC(=O)[C@H](CCCNC(=N)N)NC(=O)[C@H](Cc1c[nH]c2ccccc12)NC(=O)[C@@H](N)Cc1ccccc1)C(=O)N[C@@H](CCCNC(=N)N)C(=O)N[C@H](C(N)=O)C(C)C [FWRRIRV-NH2] (H-FWRRIRV-NH2) | 32 (≈ 31 µM) | 64 (≈ 62.1 µM) | 128 (≈ 124 µM) | – |
| CC[C@H](C)[C@H](NC(=O)[C@H](CCCNC(=N)N)NC(=O)[C@H](CCCNC(=N)N)NC(=O)[C@H](Cc1c[nH]c2ccccc12)NC(=O)[C@@H](N)Cc1ccccc1)C(=O)N[C@@H](CCCNC(=N)N)C(=O)N[C@H](C(=O)N[C@H](C(=O)N1CCC[C@H]1C(=O)N[C@H](C(=O)N[C@H](C(=O)N[C@@H](CC(N)=O)C(=O)N1CCC[C@H]1C(=O)N1CCC[C@H]1C(=O)N[C@@H](Cc1ccccc1)C(=O)N[C@@H](CC(C)C)C(=O)N[C@@H](CCC(N)=O)C(=O)N[C@@H](CCC(N)=O)C(=O)N[C@H](C(N)=O)[C@@H](C)O)C(C)C)C(C)C)[C@@H](C)O)C(C)C [FWRRIRVTPVVNPPFLQQT-NH2] (H-FWRRIRVTPVVNPPFLQQT-NH2) | 256 (≈ 109 µM) | 256 (≈ 109 µM) | – | – |
| CC[C@H](C)[C@H](NC(=O)[C@H](CCCNC(=N)N)NC(=O)[C@H](CCCNC(=N)N)NC(=O)[C@H](Cc1c[nH]c2ccccc12)NC(=O)[C@@H](N)Cc1ccccc1)C(=O)N[C@@H](CCCNC(=N)N)C(=O)N[C@H](C(=O)N[C@H](C(=O)N1CCC[C@H]1C(=O)N[C@H](C(=O)N[C@H](C(=O)N[C@@H](CC(N)=O)C(=O)N1CCC[C@H]1C(=O)N[C@@H](Cc1c[nH]c2ccccc12)C(=O)N[C@@H](Cc1ccccc1)C(=O)N[C@@H](CC(C)C)C(=O)N[C@@H](CCC(N)=O)C(=O)N[C@@H](CCC(N)=O)C(=O)N[C@H](C(N)=O)[C@@H](C)O)C(C)C)C(C)C)[C@@H](C)O)C(C)C [FWRRIRVTPVVNPWFLQQT-NH2] (H-FWRRIRVTPVVNPWFLQQT-NH2) | 32 (≈ 13.1 µM) | 32 (≈ 13.1 µM) | 64 (≈ 26.2 µM) | MIC Escherichia coli ([2]; CMCC(B) 44102, 24 h): 256 µg/mL (≈ 105 µM); MIC Pseudomonas aeruginosa ([4]; CMCC(B)10104, 24 h): 256 µg/mL (≈ 105 µM) |
| CC[C@H](C)[C@H](NC(=O)[C@H](CCCNC(=N)N)NC(=O)[C@H](CCCNC(=N)N)NC(=O)[C@H](Cc1c[nH]c2ccccc12)NC(=O)[C@@H](N)Cc1ccccc1)C(=O)N[C@@H](CCCNC(=N)N)C(=O)N[C@H](C(=O)N[C@H](C(=O)N1CCC[C@H]1C(=O)N[C@@H](Cc1c[nH]c2ccccc12)C(=O)N[C@H](C(=O)N[C@@H](CC(N)=O)C(=O)N1CCC[C@H]1C(=O)N1CCC[C@H]1C(=O)N[C@@H](Cc1ccccc1)C(=O)N[C@@H](CC(C)C)C(=O)N[C@@H](CCC(N)=O)C(=O)N[C@@H](CCC(N)=O)C(=O)N[C@H](C(N)=O)[C@@H](C)O)C(C)C)[C@@H](C)O)C(C)C [FWRRIRVTPWVNPPFLQQT-NH2] (H-FWRRIRVTPWVNPPFLQQT-NH2) | 64 (≈ 26.2 µM) | 64 (≈ 26.2 µM) | 256 (≈ 105 µM) | – |
| CC(C)C[C@H](NC(=O)[C@H](Cc1ccccc1)NC(=O)[C@@H]1CCCN1C(=O)[C@@H]1CCCN1C(=O)[C@H](CC(N)=O)NC(=O)[C@@H](NC(=O)[C@@H](NC(=O)[C@@H]1CCCN1C(=O)[C@@H](N)[C@@H](C)O)C(C)C)C(C)C)C(=O)N[C@@H](CCC(N)=O)C(=O)N[C@@H](CCC(N)=O)C(=O)N[C@H](C(N)=O)[C@@H](C)O [TPVVNPPFLQQT-NH2, reference compound] (H-TPVVNPPFLQQT-NH2) | 512 (≈ 382 µM) | – | – | – |
| FLRRIRVTPVVNPPFLQQT-NH2 | – | – | – | MIC Bacillus subtilis ([1]; CMCC(B)63501, broth microdilution, LB broth, ~1.0 × 10^5 CFU/ml, 0.5 to 512.0 μg/ml, 37 °C, 24 h, OD600, performed three times): — (“—” indicates that the peptide is inactive at 512 μg/ml.); MIC Escherichia coli ([2]; CMCC(B) 44102, broth microdilution, LB broth, ~1.0 × 10^5 CFU/ml, 0.5 to 512.0 μg/ml, 37 °C, 24 h, OD600, performed three times): — (“—” indicates that the peptide is inactive at 512 μg/ml.); MIC Listeria monocytogenes ([3]; ATCC 19115, broth microdilution, LB broth, ~1.0 × 10^5 CFU/ml, 0.5 to 512.0 μg/ml, 37 °C, 24 h, OD600, performed three times): — (“—” indicates that the peptide is inactive at 512 μg/ml.); MIC Pseudomonas aeruginosa ([4]; CMCC(B)10104, broth microdilution, LB broth, ~1.0 × 10^5 CFU/ml, 0.5 to 512.0 μg/ml, 37 °C, 24 h, OD600, performed three times): — (“—” indicates that the peptide is inactive at 512 μg/ml.); MIC Staphylococcus aureus ([5]; CMCC(B)26003, broth microdilution, LB broth, ~1.0 × 10^5 CFU/ml, 0.5 to 512.0 μg/ml, 37 °C, 24 h, OD600, performed three times): — (“—” indicates that the peptide is inactive at 512 μg/ml.); MIC Enterococcus faecalis [6]: — (“—” indicates that the peptide is inactive at 512 μg/ml.) |

— paper PMC6060096, “Novel 3D Structure Based Model for Activity Prediction and Design of Antimicrobial Peptides” (Scientific Reports, 2018)
